According to patent publication US12473299B2, “Cross-linked nucleoside and nucleotide using same” (Osaka University, priority 2020, dated 2025):
In the oligonucleotide strings, read from the 5' end, every base follows the letter of its sugar. An asterisk marks phosphorothioate; unmarked linkages are phosphodiester. Other units and linkages are bracketed, terminal groups are in braces. A string of capitals states the bases alone. [BANA] = BANA-modified thymidine; l = locked nucleic acid (LNA); [HNA] = hexitol nucleic acid; [5mC] = 5-methylcytosine; d = 2'-deoxy (DNA)

How the values were obtained:
Type in all cases: binding
[1] = test system: single-stranded oligo RNA 5′-r([…])-3′ (SEQ ID No. 36); assay: Double-strand forming ability (Tm) of mMALAT1 antisense oligonucleotides with RNA; details: for RNA Complement Tm: as in Example 9; for RNA Complement ΔTm: difference from the Tm of the sequence (26)
Method: (§1) The double-strand forming ability of the oligonucleotides was examined by subjecting the different types of oligonucleotides and the target strands to an annealing treatment to form double strands, and then measuring their Tm values. More specifically, a mixed liquid of each oligonucleotide (final concentration: 4 μM) and a phosphate buffer (10 mM, pH 7.2, 130 μL) containing sodium chloride (final concentration: 100 mM) was bathed in boiling water and then slowly cooled to room temperature. After that, the mixed liquid was cooled to 5° C. under nitrogen stream before starting the measurement. The temperature was raised to 90° C. at a rate of 0.5° C./min while absorbance at 260 nm was plotted at intervals of 0.5° C. The Tm value was calculated using a median method or differentiation (SEQ ID No. 17), and a mean value of three independent measurements was adopted.
Furthermore, the double-strand forming ability for RNA, of each oligonucleotide was assessed in a manner similar to that of Example 9. Two sequences shown in Table 42 below were used as controls (also represented by SEQ ID Nos. 34 and 35, respectively).
A single-stranded oligo RNA 5′-r([…])-3′ (SEQ ID No. 36) was used as a target strand.

[2] = test system: single-stranded oligo DNA 5′-d(AGCAAAAAACGC)-3′ (SEQ ID No. 19); assay: Double-strand forming ability (Tm) with single-stranded oligo DNA; details: for ssDNA ΔTm/mod.: Tm change per artificially modified nucleic acid base vs 5′-GCGTTTTTTGCT-3′; for ssDNA Tm: oligonucleotide 4 μM, 10 mM phosphate buffer pH 7.2, 100 mM NaCl, mean of three measurements
Method: as §1

[3] = test system: single-stranded oligo RNA 5′-r(AGCAAAAAACGC)-3′ (SEQ ID No. 18); assay: Double-strand forming ability (Tm) with single-stranded oligo RNA; details: for ssRNA ΔTm/mod.: Tm change per artificially modified nucleic acid base vs 5′-GCGTTTTTTGCT-3′; for ssRNA Tm: oligonucleotide 4 μM, 10 mM phosphate buffer pH 7.2, 100 mM NaCl, mean of three measurements; for RNA Complement ΔTm: difference from the Tm of the sequence (18); for RNA Complement Tm: sequences (18) to (21), as in Example 9
[4] = test system: single-stranded oligo DNA 5′-d(AGCAAAYAACGC)-3′; assay: Base selectivity (Tm, match/mismatch) with single-stranded oligo DNA
Method: as §1
(§2) For the above sequences (1) to (5), the double-strand forming ability (binding affinity) was examined in a similar manner using a single-stranded oligo RNA 5′-r([…])-3′ and a single-stranded oligo DNA 5′-d([…])-3′ as target strands.
(§3) For the single-stranded oligo RNA, Y was one of rA (SEQ ID No. 18), rU (SEQ ID No. 20), rG (SEQ ID No. 21), and rC (SEQ ID No. 22). For the single-stranded oligo DNA, Y was one of dA (SEQ ID No. 19), dT (SEQ ID No. 23), dG (SEQ ID No. 24), and dC (SEQ ID No. 25).
(§4) In the table, ΔTm was calculated by subtracting the Tm value of the match (dA or rA) from the Tm value of the mismatch.

[5] = test system: single-stranded oligo RNA 5′-r(AGCAAAYAACGC)-3′; assay: Base selectivity (Tm, match/mismatch) with single-stranded oligo RNA
Method: as §1, §2, §3, §4

[6] = sequences (1) to (5), label = unit at position 6, match

Compound: 5′-d(5T^LA^g^t^t^c^a^c^t^g^a^a^T^LG^5)-3′ (antisense CTAGTTCACTGAATGC; BANA and LNA modifications, phosphorothioate linkages; modified_base (1)..(1) c = BANA-mC3; modified_base (2)..(2) t = BANA-t3; modified_base (3)..(3) a = LNA-a; modified_base (3)..(13) phosphorothioated; modified_base (14)..(14) t = BANA-t3; modified_base (15)..(15) g = LNA-g; modified_base (16)..(16) c = BANA-mC3) [(25), antisense oligonucleotide against mMALAT1; 5: BANA-^mC3, T: BANA-T3]
- RNA Complement Tm [1]: 63.4 °C
- RNA Complement ΔTm [1]: +1.3 °C

Compound: 5′-d(5T^LA^g^t^t^c^a^c^t^g^a^a^T^^LG^5)-3′ (antisense CTAGTTCACTGAATGC; BANA and LNA modifications, phosphorothioate linkages; modified_base (1)..(1) c = SANA-mC3; modified_base (2)..(2) t = SANA-t3; modified_base (3)..(3) a = LNA-a; modified_base (4)..(16) phosphorothioated; modified_base (14)..(14) t = SANA-t3; modified_base (15)..(15) g = LNA-g; modified_base (16)..(16) c = SANA-mC3) [(23), antisense oligonucleotide against mMALAT1; 5: BANA-^mC3, T: BANA-T3]
- RNA Complement Tm [1]: 61.0 °C
- RNA Complement ΔTm [1]: −1.1 °C

Compound: 5′-d(5^T^^LA^g^t^t^c^a^c^t^g^a^a^T^LG^5)-3′ (antisense CTAGTTCACTGAATGC; BANA and LNA modifications, phosphorothioate linkages; modified_base (1)..(1) c = SANA-mC3; modified_base (2)..(2) t = SANA-t3; modified_base (2)..(13) phosphorothioated; modified_base (3)..(3) a = LNA-a; modified_base (14)..(14) t = SANA-t3; modified_base (15)..(15) g = LNA-g; modified_base (16)..(16) c = SANA-mC3) [(24), antisense oligonucleotide against mMALAT1; 5: BANA-^mC3, T: BANA-T3]
- RNA Complement Tm [1]: 61.7 °C
- RNA Complement ΔTm [1]: −0.4 °C

Compound: 5′-d(5^T^^LA^g^t^t^c^a^c^t^g^a^a^T^^LG^5)-3′ (antisense CTAGTTCACTGAATGC; sugars from the 5' end [BANA][BANA]ldddddddddd[BANA]l[BANA], [5mC] at 1, 16, all phosphorothioate, methylation of C not given here) [(22), antisense oligonucleotide against mMALAT1; 5: BANA-^mC3, T: BANA-T3, {circumflex}: PS]
- RNA Complement Tm [1]: 60.3 °C
- RNA Complement ΔTm [1]: −1.8 °C

Compound: 5′-d(GCG111111GCT)-3′ (DNA GCGTTTTTTGCT; BANA-T1 modified nucleotides; modified_base (4)..(9) ANA-t1) [5′-GCG111111GCT-3′]
- ssDNA ΔTm/mod. [2]: −1.8 °C
- ssDNA Tm [2]: 40 °C
- ssRNA ΔTm/mod. [3]: +3.3 °C
- ssRNA Tm [3]: 68 °C

Compound: 5′-d(GCG222222GCT)-3′ (DNA GCGTTTTTTGCT; BANA-T2 modified nucleotides; modified_base (4)..(9) t = BANA-t2) [5′-GCG222222GCT-3′, 2=Compound 19 (BANA-T2)]
- ssDNA ΔTm/mod. [2]: −0.7 °C
- ssDNA Tm [2]: 47 °C
- ssRNA ΔTm/mod. [3]: +4.5 °C
- ssRNA Tm [3]: 75 °C

Compound: 5′-d(GCGTT1TTTGCT)-3′ (DNA GCGTTTTTTGCT; BANA-T1 modified nucleotide; modified_base (6)..(6) t = BANA-t1) [5′-GCGTT1TTTGCT-3′]
- ssDNA ΔTm/mod. [2]: −10 °C
- ssDNA Tm [2]: 41 °C
- ssRNA ΔTm/mod. [3]: −4 °C
- ssRNA Tm [3]: 44 °C

Compound: 5′-d(GCGTT3L3TGCT)-3′ (DNA GCGTTTTTTGCT; LNA-T and BANA-T3 modified nucleotides; modified_base (6)..(6) t = BANA-t3; modified_base (7)..(7) t = LNA-t; modified_base (8)..(8) t = BANA-t3) [(20), L=LNA-T, 3=Compound 25 (BANA-T3)]
- RNA Complement ΔTm [3]: −3 °C
- RNA Complement Tm [3]: 60 °C

Compound: 5′-d(GCGTT33LTGCT)-3′ (DNA GCGTTTTTTGCT; LNA-T and BANA-T3 modified nucleotides; modified_base (6)..(7) t = BANA-t3; modified_base (8)..(8) t =LNA-t) [(21), L=LNA-T, 3=Compound 25 (BANA-T3)]
- RNA Complement ΔTm [3]: −2 °C
- RNA Complement Tm [3]: 61 °C

Compound: 5′-d(GCGTTHTTTGCT)-3′ (DNA GCGTTTTTTGCT; sugars from the 5' end d5 [HNA]1 d6, backbone not given here) [H=HNA-T, reference compound]
- ssDNA ΔTm/mod. [2]: −4 °C
- ssDNA Tm [2]: 47 °C
- ssRNA ΔTm/mod. [3]: +1 °C
- ssRNA Tm [3]: 49 °C

Compound: 5′-d(GCGTTL33TGCT)-3′ (DNA GCGTTTTTTGCT; LNA-T and BANA-T3 modified nucleotides; modified_base (6)..(6) t = LNA-t; modified_base (7)..(8) t = BANA-t3) [(19), L=LNA-T, 3=Compound 25 (BANA-T3)]
- RNA Complement ΔTm [3]: +1 °C
- RNA Complement Tm [3]: 64 °C

Compound: 5′-d(GCGTTLLLTGCT)-3′ (DNA GCGTTTTTTGCT; sugars from the 5' end d5 l3 d4, backbone not given here) [(18), L=LNA-T (LNA), reference compound]
- RNA Complement Tm [3]: 63 °C

Compound: 5′-d(GCGTTTTTTGCT)-3′ (DNA, backbone and methylation of C not given here) [native DNA (dT), reference compound]
- ssDNA Tm [2]: 51 °C
- ssRNA Tm [3]: 48 °C

Compound: 5′-d(^LC^^LT^^LA^g^t^t^c^a^c^t^g^a^a^^LT^^LG^^LC)-3′ (antisense CTAGTTCACTGAATGC; sugars from the 5' end l3 d10 l3, all phosphorothioate, methylation of C not given here) [(26), control, LNA gapmer with PS, reference compound]
- RNA Complement Tm [1]: 62.1 °C

Compound: 5′-d(c^t^a^g^t^t^c^a^c^t^g^a^a^t^g^c)-3′ (antisense dC*dT*dA*dG*dT*dT*dC*dA*dC*dT*dG*dA*dA*dT*dG*dC) [(27), control, PS DNA, reference compound]
- RNA Complement Tm [1]: 44.2 °C
- RNA Complement ΔTm [1]: −17.9 °C

Compound: COc1ccc(C(OC[C@H]2OC3CCOC([C@@H]3n3cc(C)c(=O)[nH]c3=O)[C@H]2OP(OCCC#N)N(C(C)C)C(C)C)(c2ccccc2)c2ccc(OC)cc2)cc1 (stereo partly drawn) [compound 19]
- ssDNA: Tm, Y = dA [4, 6]: 42 °C
- ssDNA: Tm, Y = dT ([4]; sequences (1) to (5), label = unit at position 6, mismatch dT): 38 °C
- ssDNA: Tm, Y = dC ([4]; sequences (1) to (5), mismatch dC): 32 °C
- ssDNA: Tm, Y = dG ([4]; sequences (1) to (5), mismatch dG): 31 °C
- ssDNA: ΔTm, Y = dC ([4]; ΔTm = Tm(mismatch) − Tm(match), mismatch dC): −10 °C
- ssDNA: ΔTm, Y = dG ([4]; ΔTm = Tm(mismatch) − Tm(match), mismatch dG): −11 °C
- ssDNA: ΔTm, Y = dT ([4]; ΔTm = Tm(mismatch) − Tm(match), mismatch dT): −4 °C
- base pairing with G ([5]; introduced into the oligonucleotides, compared with native DNA (dT) (SEQ ID No. 1)): suppressed base pairing with G
- ssRNA: Tm, Y = rA [5, 6]: 48 °C
- ssRNA: Tm, Y = rC ([5]; sequences (1) to (5), mismatch rC): 34 °C
- ssRNA: Tm, Y = rG ([5]; sequences (1) to (5), mismatch rG): 39 °C
- ssRNA: Tm, Y = rU ([5]; sequences (1) to (5), mismatch rU): 40 °C
- ssRNA: ΔTm, Y = rC ([5]; ΔTm = Tm(mismatch) − Tm(match), mismatch rC): −14 °C
- ssRNA: ΔTm, Y = rG ([5]; ΔTm = Tm(mismatch) − Tm(match), mismatch rG): −9 °C
- ssRNA: ΔTm, Y = rU ([5]; ΔTm = Tm(mismatch) − Tm(match), mismatch rU): −8 °C
